Among the data in ChEMBL document CHEMBL1130570, “Cyclic saligenyl phosphotriesters of 2,3-dideoxy-2,3-didehydrothymidine (d4T) a new pro-nucleotide approach” (Bioorg Med Chem Lett, 1997) are PC and EC50 values, retold here.

The term EC50 denotes the concentration giving half of the maximal effect. A low value points to an effect from little substance.

Series [1] can be described thus: Partition coefficient in 1-octanol / phosphate buffer at pH 6.8. The series is classed as physicochemical. The settings on record: octanol/water.
In series [2] the test system is CCRF-CEM. Description: Effective concentration that causes 50 % inhibition of HIV-2 in CEM/TK- cells, was determined. The series is classed as functional, cell-based. The following applies: Homo sapiens.
In series [3] the test system is CCRF-CEM. Description: Effective concentration that causes 50 % inhibition of HIV-1 in CEM/0 cells, was determined. The settings on record: Homo sapiens. The series is classed as functional, cell-based.
For series [4], the system named is CCRF-CEM. The series is described as follows: Effective concentration that causes 50 % inhibition of HIV-2 in CEM/0 cells, was determined. Type of series: functional, cell-based. The settings on record: Homo sapiens.

In brackets after ≈: the same amount, converted by molar mass.

`Cc1ccc2c(c1)COP(=O)(OC[C@@H]1C=C[C@H](n3cc(C)c(=O)[nH]c3=O)O1)O2` (some centres undefined) came in with a PC in series [1] of 5.4.

Consider `Cc1cn([C@H]2C=C[C@@H](COP3(=O)OCc4cc([N+](=O)[O-])ccc4O3)O2)c(=O)[nH]c1=O` (some centres undefined), for which the PC in series [1] is 1.5. In addition, the EC50 in the series on CCRF-CEM [2] was found to be 40 µg/mL (≈ 91.5 µM); in the series on CCRF-CEM [3] it was 0.29 µg/mL (≈ 0.663 µM); in the series with CCRF-CEM [4], 0.4 µg/mL (≈ 0.915 µM).

Consider `Cc1cn([C@H]2C=C[C@@H](CO)O2)c(=O)[nH]c1=O` [STAVUDINE], for which the PC in series [1] is given as 0.15. Moreover, the EC50 was 45 µg/mL (≈ 201 µM) in the series with CCRF-CEM [2], 0.4 µg/mL (≈ 1.78 µM) in the series on CCRF-CEM [3] and 1.45 µg/mL (≈ 6.47 µM) in the series on CCRF-CEM [4].

`Cc1cn([C@H]2C=C[C@@H](COP3(=O)OCc4cc(Cl)ccc4O3)O2)c(=O)[nH]c1=O` (some centres undefined): the PC in series [1] worked out at 7.7. Also, the concentration for a half-maximal effect (EC50) in the series on CCRF-CEM [2] is 20 µg/mL (≈ 46.9 µM); in the series with CCRF-CEM [3], 0.18 µg/mL (≈ 0.422 µM); in the series on CCRF-CEM [4] it was 0.25 µg/mL (≈ 0.586 µM).

For `Cc1cn([C@H]2C=C[C@@H](COP3(=O)OCc4ccccc4O3)O2)c(=O)[nH]c1=O` (some centres undefined), the PC in series [1] came to 1.9.
